Measured values as given in patent US9096663B2, “Compositions and methods for treating conditions related to ephrin signaling with cupredoxins and mutants thereof” (The Board of Trustees of the University of Illinois, priority 2001, dated 2015).

Legend:
Format in all cases: cell-based, human
Astrocytoma CCF-STTG1 = experiment: MTT assay, astrocytoma CCF-STTG1; conditions: 75 μM, 24 h, 37° C.
Protocol: (§1) Cytotoxicity effects were determined by MTT assay. […] Percent cytotoxicity is expressed as percentage of ceil death as compared to that of untreated control (0% cytotoxicity).
(§2) Approximately 2×10^4 cells per well were seeded into 96-well culture plates in 100 μl of RPMI 1640 medium. […] After 24 or 48 h treatment, 10 μl of 5 mg/ml MTT solution was added to the culture and incubated for 1 h at 37° C. The MTT reaction was terminated by the addition of 40 mM HCl in isopropanol. The MTT formazan formed was measured spectrophotometrically as described earlier (Mosmann, 1983). Untreated control cells were compared to treated cells for determining viability and therefore a measure of cytotoxicity.

Glioblastoma LN-229 = experiment: MTT assay, glioblastoma LN-229; conditions: 24 h; for induction of cell death, LN-229: 75 μM, 37° C.
Protocol: as §1, §2

[1] = tested on: MCF-7 breast cancer cells; experiment: MCF-7 cell growth, cells counted in coulter counter
Protocol: The extent of cell growth inhibition was about 25% at 5 ug/ml of the 18-mer synthetic peptide as compared to untreated control.

Sequence	induction of cell death, CCF-STTG1 (Astrocytoma CCF-STTG1)	induction of cell death, LN-229 (Glioblastoma LN-229)	dose dependence of cytotoxicity, glioblastoma LN-229 (Glioblastoma LN-229; 10, 25, 50, 75, 100 μM)	inhibition of MCF-7 cell growth vs untreated control ([1]; 5 ug/ml)	inhibition of MCF-7 cell growth vs untreated cells ([1]; 50 ug/ml, 48 to 72 hours) [%]
TFDVSKLKEGEQYMFFCT [Azu 96-113]	showed induction of cell death	showed induction of cell death	increasing peptide concentrations led to increasing cytotoxicity	about 25%	50
VRIKLSTPGVYGVYCE [Plc 70-84]	showed induction of cell death	showed induction of cell death	–	–	–
